From PubChem BioAssay (NCI)
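Cultured in 96-well plates, cells were exposed to test compound for 48 hours across five concentrations. TGI is the concentration that stops growth completely.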

Key:
Assay in all cases: growth of human tumour cells (NCI), 48 h
786-0 renal = system: 786-0 renal
U251 CNS = system: U251 CNS
ACHN renal = system: ACHN renal
UACC-62 melanoma = system: UACC-62 melanoma
UO-31 renal = system: UO-31 renal
NCI-H460 lung = system: NCI-H460 lung
A549 NSCLC = system: A549 NSCLC
NCI-H226 lung = system: NCI-H226 lung
SR leukemia = system: SR leukemia
COLO 205 colon = system: COLO 205 colon
DMS 114 small cell lung = system: DMS 114 small cell lung
SF-539 CNS = system: SF-539 CNS
HCC-2998 colon = system: HCC-2998 colon
HCT-15 colon = system: HCT-15 colon
TK-10 renal = system: TK-10 renal
K-562 leukemia = system: K-562 leukemia
HL-60(TB) leukemia = system: HL-60(TB) leukemia
A498 renal = system: A498 renal
KM20L2 colon = system: KM20L2 colon
IGROV1 ovarian = system: IGROV1 ovarian
OVCAR-3 ovarian = system: OVCAR-3 ovarian
CCRF-CEM leukemia = system: CCRF-CEM leukemia
RPMI-8226 leukemia = system: RPMI-8226 leukemia
SF-295 CNS = system: SF-295 CNS
RXF-631 renal = system: RXF-631 renal
SNB-75 CNS = system: SNB-75 CNS
LOX IMVI melanoma = system: LOX IMVI melanoma
LXFL 529 NSCLC = system: LXFL 529 NSCLC
HOP-92 NSCLC = system: HOP-92 NSCLC
HOP-62 NSCLC = system: HOP-62 NSCLC
OVCAR-4 ovarian = system: OVCAR-4 ovarian
OVCAR-8 ovarian = system: OVCAR-8 ovarian
MOLT-4 leukemia = system: MOLT-4 leukemia
DLD-1 colon = system: DLD-1 colon
M19-MEL melanoma = system: M19-MEL melanoma
SK-MEL-28 melanoma = system: SK-MEL-28 melanoma
HOP-18 NSCLC = system: HOP-18 NSCLC
SK-MEL-5 melanoma = system: SK-MEL-5 melanoma
NCI-H23 lung = system: NCI-H23 lung
UACC-257 melanoma = system: UACC-257 melanoma
SF-268 CNS = system: SF-268 CNS
KM12 colon = system: KM12 colon
MALME-3M melanoma = system: MALME-3M melanoma
EKVX NSCLC = system: EKVX NSCLC
SNB-19 CNS = system: SNB-19 CNS
HT29 colon = system: HT29 colon
HCT-116 colon = system: HCT-116 colon
DMS 273 small cell lung = system: DMS 273 small cell lung
OVCAR-5 ovarian = system: OVCAR-5 ovarian
SN12C renal = system: SN12C renal
NCI-H522 lung = system: NCI-H522 lung
SNB-78 CNS = system: SNB-78 CNS
CAKI-1 renal = system: CAKI-1 renal
M14 melanoma = system: M14 melanoma
SW-620 colon = system: SW-620 colon
SK-OV-3 ovarian = system: SK-OV-3 ovarian
SK-MEL-2 melanoma = system: SK-MEL-2 melanoma
XF 498 CNS = system: XF 498 CNS
RXF 393 renal = system: RXF 393 renal

Structure (SMILES): O=C(CC(=O)n1nc(-c2ccccc2)c(N=Nc2ccc(Cl)cc2)c1-c1ccccc1)Nc1ccc(Cl)cc1
- TGI (786-0 renal): > 61.1 µM
- TGI (U251 CNS): > 100 µM
- TGI (ACHN renal): > 100 µM
- TGI (UACC-62 melanoma): > 100 µM
- TGI (UO-31 renal): > 100 µM
- TGI (NCI-H460 lung): > 59.4 µM
- TGI (A549 NSCLC): > 60.6 µM
- TGI (NCI-H226 lung): > 100 µM
- TGI (SR leukemia): > 100 µM
- TGI (COLO 205 colon): > 63.9 µM
- TGI (DMS 114 small cell lung): > 56.9 µM
- TGI (SF-539 CNS): > 100 µM
- TGI (HCC-2998 colon): > 100 µM
- TGI (HCT-15 colon): > 55.8 µM
- TGI (TK-10 renal): > 100 µM
- TGI (K-562 leukemia): > 66.2 µM
- TGI (HL-60(TB) leukemia): > 100 µM
- TGI (A498 renal): > 100 µM
- TGI (KM20L2 colon): > 100 µM
- TGI (IGROV1 ovarian): > 100 µM
- TGI (OVCAR-3 ovarian): > 100 µM
- TGI (CCRF-CEM leukemia): > 62.8 µM
- TGI (RPMI-8226 leukemia): > 64.6 µM
- TGI (SF-295 CNS): > 100 µM
- TGI (RXF-631 renal): > 100 µM
- TGI (SNB-75 CNS): > 100 µM
- TGI (LOX IMVI melanoma): > 56.9 µM
- TGI (LXFL 529 NSCLC): > 100 µM
- TGI (HOP-92 NSCLC): > 100 µM
- TGI (HOP-62 NSCLC): > 100 µM
- TGI (OVCAR-4 ovarian): > 100 µM
- TGI (OVCAR-8 ovarian): > 100 µM
- TGI (MOLT-4 leukemia): > 100 µM
- TGI (DLD-1 colon): 44.7 µM
- TGI (M19-MEL melanoma): > 76.2 µM
- TGI (SK-MEL-28 melanoma): > 100 µM
- TGI (HOP-18 NSCLC): > 100 µM
- TGI (SK-MEL-5 melanoma): > 100 µM
- TGI (NCI-H23 lung): > 100 µM
- TGI (UACC-257 melanoma): > 100 µM
- TGI (SF-268 CNS): > 100 µM
- TGI (KM12 colon): > 100 µM
- TGI (MALME-3M melanoma): > 100 µM
- TGI (EKVX NSCLC): > 100 µM
- TGI (SNB-19 CNS): > 100 µM
- TGI (HT29 colon): > 59.7 µM
- TGI (HCT-116 colon): > 55.1 µM
- TGI (DMS 273 small cell lung): > 100 µM
- TGI (OVCAR-5 ovarian): > 100 µM
- TGI (SN12C renal): > 100 µM
- TGI (NCI-H522 lung): > 100 µM
- TGI (SNB-78 CNS): > 100 µM
- TGI (CAKI-1 renal): > 100 µM
- TGI (M14 melanoma): > 100 µM
- TGI (SW-620 colon): > 62.6 µM
- TGI (SK-OV-3 ovarian): > 100 µM
- TGI (SK-MEL-2 melanoma): > 100 µM

Structure (SMILES): O=C1c2ccccc2C(=O)C1(O)c1c[nH]c2ccccc12
- TGI (786-0 renal): > 100 µM
- TGI (U251 CNS): > 100 µM
- TGI (UACC-62 melanoma): > 100 µM
- TGI (UO-31 renal): > 100 µM
- TGI (NCI-H460 lung): > 100 µM
- TGI (A549 NSCLC): > 100 µM
- TGI (SR leukemia): > 100 µM
- TGI (COLO 205 colon): > 100 µM
- TGI (DMS 114 small cell lung): > 100 µM
- TGI (SF-539 CNS): > 100 µM
- TGI (HCT-15 colon): > 100 µM
- TGI (TK-10 renal): > 100 µM
- TGI (K-562 leukemia): > 100 µM
- TGI (HL-60(TB) leukemia): > 100 µM
- TGI (KM20L2 colon): > 100 µM
- TGI (IGROV1 ovarian): > 100 µM
- TGI (OVCAR-3 ovarian): > 100 µM
- TGI (XF 498 CNS): > 100 µM
- TGI (CCRF-CEM leukemia): > 100 µM
- TGI (RPMI-8226 leukemia): > 100 µM
- TGI (SF-295 CNS): > 100 µM
- TGI (RXF-631 renal): > 100 µM
- TGI (SNB-75 CNS): > 100 µM
- TGI (LOX IMVI melanoma): > 100 µM
- TGI (LXFL 529 NSCLC): > 100 µM
- TGI (HOP-92 NSCLC): > 100 µM
- TGI (HOP-62 NSCLC): > 100 µM
- TGI (OVCAR-4 ovarian): > 100 µM
- TGI (OVCAR-8 ovarian): > 100 µM
- TGI (MOLT-4 leukemia): > 100 µM
- TGI (DLD-1 colon): > 100 µM
- TGI (M19-MEL melanoma): > 100 µM
- TGI (SK-MEL-28 melanoma): > 100 µM
- TGI (NCI-H23 lung): > 100 µM
- TGI (UACC-257 melanoma): > 100 µM
- TGI (SF-268 CNS): > 100 µM
- TGI (KM12 colon): > 100 µM
- TGI (MALME-3M melanoma): > 100 µM
- TGI (EKVX NSCLC): > 100 µM
- TGI (SNB-19 CNS): > 100 µM
- TGI (HT29 colon): > 100 µM
- TGI (HCT-116 colon): > 100 µM
- TGI (OVCAR-5 ovarian): > 100 µM
- TGI (NCI-H522 lung): > 100 µM
- TGI (SNB-78 CNS): > 100 µM
- TGI (CAKI-1 renal): > 100 µM
- TGI (M14 melanoma): > 100 µM
- TGI (SW-620 colon): > 100 µM
- TGI (SK-OV-3 ovarian): > 100 µM
- TGI (SK-MEL-2 melanoma): > 100 µM

Structure (SMILES): O=C(N/N=C/c1cc(Br)ccc1O)N/N=C/c1cc(Br)ccc1O
- TGI (786-0 renal): > 100 µM
- TGI (U251 CNS): > 100 µM
- TGI (ACHN renal): > 100 µM
- TGI (UO-31 renal): > 100 µM
- TGI (NCI-H460 lung): > 100 µM
- TGI (A549 NSCLC): > 100 µM
- TGI (NCI-H226 lung): 9.64 µM
- TGI (SR leukemia): > 100 µM
- TGI (COLO 205 colon): > 100 µM
- TGI (DMS 114 small cell lung): > 100 µM
- TGI (SF-539 CNS): > 100 µM
- TGI (TK-10 renal): > 100 µM
- TGI (K-562 leukemia): > 100 µM
- TGI (HL-60(TB) leukemia): > 100 µM
- TGI (A498 renal): > 100 µM
- TGI (KM20L2 colon): > 100 µM
- TGI (XF 498 CNS): > 100 µM
- TGI (CCRF-CEM leukemia): > 100 µM
- TGI (RXF 393 renal): > 100 µM
- TGI (SF-295 CNS): > 100 µM
- TGI (RXF-631 renal): > 100 µM
- TGI (LOX IMVI melanoma): > 100 µM
- TGI (HOP-92 NSCLC): 6.05 µM
- TGI (HOP-62 NSCLC): > 100 µM
- TGI (OVCAR-4 ovarian): > 100 µM
- TGI (OVCAR-8 ovarian): 21.1 µM
- TGI (MOLT-4 leukemia): > 100 µM
- TGI (DLD-1 colon): > 100 µM
- TGI (M19-MEL melanoma): > 100 µM
- TGI (SK-MEL-28 melanoma): > 100 µM
- TGI (SK-MEL-5 melanoma): > 100 µM
- TGI (NCI-H23 lung): > 100 µM
- TGI (UACC-257 melanoma): > 100 µM
- TGI (SF-268 CNS): > 100 µM
- TGI (KM12 colon): > 100 µM
- TGI (MALME-3M melanoma): > 100 µM
- TGI (EKVX NSCLC): > 100 µM
- TGI (SNB-19 CNS): > 100 µM
- TGI (HT29 colon): > 100 µM
- TGI (DMS 273 small cell lung): > 100 µM
- TGI (OVCAR-5 ovarian): > 100 µM
- TGI (SN12C renal): > 100 µM
- TGI (NCI-H522 lung): > 100 µM
- TGI (CAKI-1 renal): > 100 µM
- TGI (SW-620 colon): > 100 µM
- TGI (SK-OV-3 ovarian): > 100 µM
